Experimental data taken from US20230181496A1, “USE OF NOREPINEPHRINE OR BETA-ADRENERGIC RECEPTOR INHIBITOR IN PREPARATION OF MEDICAMENT FOR NERVE INJURY REPAIR IN DIABETES” (Qingdao Eye Hospital of Shandong First Medical University …, priority 2021, published 2023).
Entries after “also recorded” stand apart in the source; their conditions may differ.

How the values were obtained:
[1] = test system: Trigeminal ganglion neurons; assay: Growth of trigeminal ganglion neurons cultured with TKE2 culture supernatants (βIII-Tubulin staining, Neuron J length); format: cell-based, mice; settings: supernatant added to neurons for 24 h
Method: Trigeminal ganglion neurons isolated from normal mice were mixed with a mixture of 40 U/mL papain, 3 mg/mL collagenase, and 4.7 mg/mL dispase II, digested and subjected to gradient centrifugation with percoll (upper layer: 12.5% percoll; lower layer 28% percoll), and isolated to obtain neurons (as describedin the prior art: Malin, S. A., Davis, B. M. & Molliver, D. C. Production of dissociated sensory neuron cultures and considerations for their use in studying neuronal function and plasticity. Nat Protoc 2, 152-160 (2007).). The neurons obtained were cultured on a laminin-coated glass slide overnight. TKE2 culture supernatants under different conditions were added to the neurons and cultured for 24 h; after βIII-Tubulin staining, the length of neuron was analyzed and calculated by Neuron J (after the relative length was analyzed by the software, it was calculated with the control as 1.0).

TKE2 cells = assay: Expression of neurotrophic factors NGF and GDNF in TKE2 cells (qPCR and ELISA); format: cell-based, mouse; settings: 24 h
Method: TKE2 cells cultured under different conditions were collected for mRNA extraction, and their culture supernatants were collected; after qPCR and ELISA, expression levels of neurotrophic factors NGF and GDNF were obtained, respectively. Herein, primers for the detection of expression of NGF and GDNF by qPCR were as follows: The reaction system was as follows: 2×SYBR: 5 μL; upstream primer: 0.3 μL; downstream primer: 0.3 μL; RNase-free water: 2.4 μL; cDNA: 2 μL; total: 10 μL; The reaction program was as follows: PCR initial denaturation: 95° C. for 2 min; two-step program: 40 cycles of 95° C. for 5 s and 60° C. for 10 s. The ELISA was conducted by ELISA Kit for mouse NGF (USCN Life Science Inc. Wuhan, China) and mouse GDNF(Abcam, ab171178, Shanghai, China).

diabetic mice [2] = assay: Corneal epithelial repair after 2 mm corneal epithelium scraping (sodium fluorescein staining); format: in vivo
diabetic mice [3] = assay: Corneal sensitivity after corneal epithelium scraping (Cochet-Bonnet aesthesiometer); format: in vivo
diabetic mice [4] = assay: Corneal nerve regeneration (βIII-tubulin staining, confocal microscope); format: in vivo
Text: Animals were STZ-induced type I diabetic mice (constructedas describedin the prior art: Lingling, Yang, Guohu, Di, Xia, & Qi, et al. (2014). Substance P promotes diabetic corneal epithelial wound healing through molecular mechanisms mediated via the neurokinin-1 receptor. Diabetes, 63(12), 4262-4274.) and their normal controls. Laboratory mice had no corneal defect, neovascularization, or conjunctival injury.
Cornea of diabetic mice and their control mice were subjected to βIII-tubulin staining (as described in the following reference: Wang X, Li W, Zhou Q, et al. MANF Promotes Diabetic Corneal Epithelial Wound Healing and Nerve Regeneration by Attenuating Hyperglycemia-Induced Endoplasmic Reticulum Stress. 2020.), and nerve regeneration was observed under a confocal microscope.
The cornea of diabetic mice and their control mice were stained with βIII-tubulin, and nerve regeneration was observed under a confocal microscope.

diabetic mice [5] = assay: Expression of NGF and GDNF in corneal epithelium (mRNA detection and immunofluorescence staining); format: in vivo; settings: diabetic mice dropped in eyes with β2-adrenergic receptor antagonist
Text: mRNA was extracted from the corneal epithelia of the diabetic mice and the diabetic mice treated with β2-adrenergic receptor antagonist; meanwhile, expression levels of NGF and GDNF in epithelial cells were detected according to the example, and expression levels of NGF and GDNF in epithelia of the diabetic mice and the diabetic mice dropped in eyes with β2-adrenergic receptor antagonist were detected by immunofluorescence staining.

Cc1ccc(OCC(O)C(C)NC(C)C)c2c1CCC2 (centres unmarked) [ICI 118,551]
reversal of nerve growth inhibition caused by elevated norepinephrine ([1]; TKE2 cells treated with 10 μM NE + 50 μM antagonist for 24 h): better reverse nerve growth inhibition
reversal of downregulated expression of NGF and GDNF caused by NE (TKE2 cells; 10 μM NE + 50 μM antagonist): reverse the downregulated expression of NGF and GDNF
diabetic corneal epithelial repair (diabetic mice [2]; 10-100 μM eye drops, 5 μL/eye, 4 times/day, two consecutive days, 0, 24, 36, 48 h after modeling): significantly promote the diabetic corneal epithelial repair
diabetic corneal epithelial repair (diabetic mice [2]; Example 8: 100 mg/kg intraperitoneally, four consecutive days, scraped at 7th day, 0, 36, 48 h after modeling): significantly promote the diabetic corneal epithelial repair
corneal sensitivity (diabetic mice [3]; 10-100 μM eye drops, 5 μL/eye, 4 times/day, two consecutive days): significantly promote
corneal sensitivity (diabetic mice [3]; Example 8: 100 mg/kg intraperitoneally, four consecutive days, scraped at 7th day): recover the sensitivity
corneal nerve regeneration (diabetic mice [4]; diabetic mice treated with β2-adrenergic receptor antagonist eye drops): promoting effect; also recorded: effectively promote corneal nerve regeneration
expression of NGF and GDNF in corneal epithelium (diabetic mice [5]): significantly upregulated the expression of NGF and GDNF

NCCc1cc(O)c(O)cc1O [6-OHDA, 6-hydroxydopamine]
corneal nerve regeneration (diabetic mice [4]; Example 8: 100 mg/kg intraperitoneally, four consecutive days, 100 mg/kg): promoting effect; also recorded: effectively promoted the corneal nerve regeneration

NC[C@H](O)c1ccc(O)c(O)c1 [norepinephrine]
nerve growth (length of neuron) ([1]; TKE2 cells treated with 10 μM NE for 24 h): nerve growth inhibition
expression of NGF and GDNF (TKE2 cells; 10 μM NE): downregulated expression of NGF and GDNF
